Source: patent EP4603105A1, “PHARMACEUTICAL COMPOSITION CONTAINING CYCLIC COMPOUND HAVING SELECTIVE KRAS INHIBITORY EFFECT AGAINST HRAS AND NRAS” (CHUGAI SEIYAKU KABUSHIKI KAISHA, priority 2022, dated 2024)

How the values were obtained:
HRAS wild-type protein = HRAS wild-type protein (Homo sapiens, UniProt P01112); assay: Binding to HRAS by surface plasmon resonance (SPR), KD and KD ratio to KRAS; conditions: ratio of KD for HRAS wild-type protein to KD for KRAS
Outline: (§1)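 GDP-loaded biotinylated Avi-tag RAS proteins (E. coli-expressed) captured on a Biotin CAPture chip at ~100–300 RU; single-cycle kinetics at 30°C, 100 µL/min, 75 s injections of rising compound concentrations. HBS pH 7.4 running buffer with 1 mM DTT, 10 mM MgCl2, 10 µM GDP, 4% DMSO. KD from 1:1 binding fit.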

[1] = target: GDP-bound NRAS wild-type protein (Homo sapiens, UniProt P01111); assay: Binding to NRAS by surface plasmon resonance (SPR), KD and KD ratio to KRAS; conditions: ratio of KD for GDP-bound NRAS wild-type protein to KD for KRAS
GDP-bound NRAS wild-type protein, sequence (P01111 whole entry): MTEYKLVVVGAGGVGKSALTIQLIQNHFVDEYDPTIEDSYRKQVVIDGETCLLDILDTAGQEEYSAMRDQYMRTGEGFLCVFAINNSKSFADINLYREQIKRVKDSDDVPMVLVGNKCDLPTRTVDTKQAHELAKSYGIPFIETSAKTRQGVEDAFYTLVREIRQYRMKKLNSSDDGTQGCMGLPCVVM
Outline: as §1

[2] = target: GDP-bound KRAS wild-type protein (Homo sapiens, UniProt P01116); assay: Binding to KRAS by surface plasmon resonance (SPR), dissociation constant KD; conditions: 1:1 binding model
GDP-bound KRAS wild-type protein, sequence (P01116 1-188 isoform P01116-2): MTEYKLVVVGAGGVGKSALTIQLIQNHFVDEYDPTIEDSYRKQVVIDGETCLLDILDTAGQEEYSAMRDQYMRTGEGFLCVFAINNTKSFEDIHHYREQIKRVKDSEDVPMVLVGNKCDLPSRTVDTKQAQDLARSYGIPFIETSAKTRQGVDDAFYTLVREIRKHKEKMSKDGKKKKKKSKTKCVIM
Outline: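 Captured GDP-RAS (~100–300 RU) was exposed to increasing compound concentrations, 75 s per step, in running buffer with 10 µM GDP, 10 mM MgCl2 and 4% DMSO at pH 7.4.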

[3] = test system: human lung cancer strain NCI-H441; assay type: cell-based
Outline: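 Readout: […] after the ATP-based reagent. Compound: serial dilutions in dimethyl sulfoxide.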

HRAS wild-type protein, sequence (P01112 whole entry): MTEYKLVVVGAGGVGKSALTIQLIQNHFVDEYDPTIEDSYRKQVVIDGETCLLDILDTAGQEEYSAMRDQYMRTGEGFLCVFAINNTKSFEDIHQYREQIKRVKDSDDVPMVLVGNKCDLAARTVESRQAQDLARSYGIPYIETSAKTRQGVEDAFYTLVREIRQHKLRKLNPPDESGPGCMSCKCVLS

| Structure (SMILES) | HRAS /KRAS (HRAS wild-type protein) | NRAS /KRAS [1] | Kd [2] [nM] | IC50 [3] [nM] |
| --- | --- | --- | --- | --- |
| CC[C@H](C)[C@@H]1NC(=O)[C@H](COC)N(C)C(=O)C[C@@H](C(=O)N(C)CC)N(C)C(=O)[C@H](C2CCCC2)N(C)C(=O)C2(CC(C)(C)C2)NC(=O)[C@@H]2C[C@@H](F)CN2C(=O)[C@H](CCc2cc(F)cc(F)c2)NC(=O)CN(C)C(=O)[C@H](Cc2ccc(C(F)(F)F)cc2)N2CC/C=C\C[C@@H](C2=O)N(C)C(=O)CN(C)C1=O [PP3138] | A (a compound having 10 or more and less than 20 is denoted as A) | A (a compound having 10 or more and less than 20 is denoted as A) | 4.4 | 507 |
| CCO[C@@H]1C[C@H]2C(=O)NC3(CC(C)(C)C3)C(=O)N(C)[C@@H](C3CCCC3)C(=O)N(C)[C@H](C(=O)N(C)CC)CC(=O)N(C)[C@@H](CC(C)C)C(=O)N[C@@H]([C@@H](C)CC)C(=O)N(C)CC(=O)N(C)[C@H]3C/C=C\CCN(C3=O)[C@@H](Cc3ccc(C(F)F)cc3)C(=O)N(C)CC(=O)N[C@@H](CCc3ccc(C(F)(F)F)c(CC)c3)C(=O)N2C1 [PP3141] | A (a compound having 10 or more and less than 20 is denoted as A) | A (a compound having 10 or more and less than 20 is denoted as A) | 0.25 | 9.8 |
| CCO[C@@H]1C[C@H]2C(=O)NC3(CC(C)(C)C3)C(=O)N(C)[C@@H](C3CCCC3)C(=O)N(C)[C@H](C(=O)N(C)CC)CC(=O)N(C)[C@@H](CC(C)C)C(=O)N[C@@H]([C@@H](C)CC)C(=O)N(C)CC(=O)N(C)[C@H]3C/C=C\CCN(C3=O)[C@@H](Cc3ccc(C(F)F)cc3)C(=O)N(C)CC(=O)N[C@@H](CCc3cc(F)c(Cl)c(OC)c3)C(=O)N2C1 [PP3142] | A (a compound having 10 or more and less than 20 is denoted as A) | A (a compound having 10 or more and less than 20 is denoted as A) | 0.44 | 39.3 |
| CCO[C@@H]1C[C@H]2C(=O)NC3(CC(C)(C)C3)C(=O)N(C)[C@@H](C3CCCC3)C(=O)N(C)[C@H](C(=O)N(C)CC)CC(=O)N(C)[C@@H](CC(C)C)C(=O)N[C@@H]([C@@H](C)CC)C(=O)N(C)CC(=O)N(C)[C@H]3C/C=C\CCN(C3=O)[C@@H](Cc3ccc(C(F)F)cc3)C(=O)N(C)CC(=O)N[C@@H](CCc3cc(F)c(CC)c(OC)c3)C(=O)N2C1 [PP3143] | A (a compound having 10 or more and less than 20 is denoted as A) | A (a compound having 10 or more and less than 20 is denoted as A) | 0.66 | 41 |
| CCO[C@@H]1C[C@H]2C(=O)NC3(CC(C)(C)C3)C(=O)N(C)[C@@H](C3CCCC3)C(=O)N(C)[C@H](C(=O)N(C)CC)CC(=O)N(C)[C@@H](CC(C)C)C(=O)N[C@@H]([C@@H](C)CC)C(=O)N(C)CC(=O)N(C)[C@H]3C/C=C\CCN(C3=O)[C@@H](Cc3ccc(C(F)F)cc3)C(=O)N(C)CC(=O)N[C@@H](CCc3cc(C)c(C(F)F)c(C)c3)C(=O)N2C1 [PP3144] | A (a compound having 10 or more and less than 20 is denoted as A) | A (a compound having 10 or more and less than 20 is denoted as A) | 4.3 | 72.7 |
| CCO[C@@H]1C[C@H]2C(=O)NC3(CC(C)(C)C3)C(=O)N(C)[C@@H](C3CCCC3)C(=O)N(C)[C@H](C(=O)N(C)CC)CC(=O)N(C)[C@@H](CC(C)C)C(=O)N[C@@H]([C@@H](C)CC)C(=O)N(C)CC(=O)N(C)[C@H]3C/C=C\CCN(C3=O)[C@@H](Cc3ccc(C(F)F)cc3)C(=O)N(C)CC(=O)N[C@@H](CCc3cc(C)c(C(F)F)c(F)c3)C(=O)N2C1 [PP3145] | A (a compound having 10 or more and less than 20 is denoted as A) | A (a compound having 10 or more and less than 20 is denoted as A) | 0.69 | 29.9 |
